Assay type in all cases: cell-based
The subject of one test is dengue virus (DENV). In words: microbe, parasite or virus in culture. The conditions noted are these: Dengue virus, Vero, 120 h, read-out: Percent viral inhibition DENY.
The subject of a further test is Measles (CC; Vero 76). In words: In vitro viral inhibition, Measles. The following applies: Measles morbillivirus, strain CC, Vero 76 cells. As to the method: (§1) In vitro studies of the antiviral activity were also carried out for several viruses using Example 369.
The subject of test [1] is Mayaro virus (BE AR 505411; Vero 76). In words: In vitro viral inhibition, Mayaro virus. The conditions noted are these: strain BE AR 505411, Vero 76 cells. On the procedure:
as §1

Test [2] relates to Dengue Virus 2 (New Guinea C; Huh7). In words: In vitro viral inhibition, Dengue Virus 2.
The test system of test [3] is Eastern equine encephalitis (FL39-939; Vero 76). In words: cells.
Test [4] relates to Chikungunya (S27; Vero 76). In words: In vitro viral inhibition, Chikungunya. The conditions noted are these: Chikungunya virus.
The test system of test [5] is Usutu virus (TC-508; Vero 76). In words: In vitro viral inhibition, Usutu virus. The following applies: strain TC-508, Vero 76 cells. As to the method:
as §1

Test [6] deals with Western equine encephalitis (California; Vero 76). In words: cells.
The subject of test [7] is Respiratory syncytial virus (A2; RD). In words: In vitro viral inhibition, Respiratory syncytial virus. The conditions noted are these: human respiratory syncytial virus. On the procedure:
as §1

In test [8] the test system is Yellow Fever (YFV 17D; Huh7). In words: microbe, parasite or virus in culture.
The next test concerns Marburg virus (MARV). In words: organism not typed. The conditions noted are these: Vero, 72 h, read-out: Percent viral inhibition MARV.
Test [9] concerns Powassan virus (LB; BHK-21). In words: microbe, parasite or virus in culture.
Test [10] concerns Japanese encephalitis virus (SA-14; Vero 76). In words: In vitro viral inhibition, Japanese encephalitis virus.
Test [11] relates to Chikungunya virus (CHIKV). In words: microbe, parasite or virus in culture. The following applies: Chikungunya virus, Vero, 48 h, read-out: Percent viral inhibition CHKV.
For test [12], the system named is Venezuelan equine encephalitis (TC-83; Vero 76). In words: cells.
The mark [13] stands for this setting: Neutral Red assay, read-out: EC50 (ug/mL) (Neutral Red (NR) Assay).
The mark [14] stands for this setting: VIS assay, read-out: EC50 (ug/mL) (VIS Drug Assay).
[15] abbreviates: Huh-7, read-out: EC50 (ug/mL) (Neutral Red (NR) Assay).
Where [16] appears, read: Huh-7, read-out: EC50 (ug/mL) (VIS Drug Assay).
Where [17] appears, read: Vero 76, read-out: EC50 (ug/mL) (Neutral Red (NR) Assay).
The mark [18] stands for this setting: Vero 76, read-out: EC50 (ug/mL) (VIS Drug Assay).

For orientation: inhibition means how much of the control response was suppressed.

Values after ≈ are worked out from the molar mass of the structure shown. Where two headings read alike, the source gives them in different places. Where only a bound is given, the exact number is not on record here.

With `CC(=O)NCC1CCN(Cc2cc(Oc3cnc(N4CCN(CCC(C)C(=O)O)CC4)nc3)nc(-c3cc(Cl)cc(Cl)c3)c2)CC1` (stereo not drawn) [Example 369, 4-(4-(5-((4-((4-(acetamidomethyl)piperidin-1-yl)methyl)-6-(3,5-dichlorophenyl)pyridin-2-yl)oxy)pyrimidin-2-yl)piperazin-1-yl)-2-methylbutanoic acid], the inhibition at 1 µM with dengue virus (DENV) amounted to 33.3%; in the test on Marburg virus (MARV), 47.1%; in [11] it was 32.9%. In addition, the EC50 was under 0.1 µg/mL with Measles (CC; Vero 76) (setting [13]); under 0.1 µg/mL in the test on Measles (CC; Vero 76) (setting [14]); 0.28 µg/mL (≈ 0.418 µM) in test [1] (setting [13]); 0.32 µg/mL (≈ 0.477 µM) in test [1] (setting [14]); under 0.1 µg/mL in test [2] (setting [15]); under 0.1 µg/mL in test [2] (setting [16]). Further, the EC50 in [3] (setting [17]) is under 0.1 µg/mL; in test [3] (setting [18]), under 0.1 µg/mL; in [4] (setting [17]) it was 0.18 µg/mL (≈ 0.268 µM); in [4] (setting [18]), 0.12 µg/mL (≈ 0.179 µM); in [5] (setting [13]) it was 5.8 µg/mL (≈ 8.65 µM); in test [5] (setting [14]) it was 2.7 µg/mL (≈ 4.03 µM). Besides, the EC50 is under 0.1 µg/mL in test [6] (setting [17]); under 0.1 µg/mL in [6] (setting [18]); 0.3 µg/mL (≈ 0.447 µM) in test [7] (read-out: EC50 (ug/mL) (Neutral Red (NR) Assay)); 28 µg/mL (≈ 41.8 µM) in test [7] (read-out: EC50 (ug/mL) (VIS Drug Assay)); 0.18 µg/mL (≈ 0.268 µM) in [8] (setting [15]); 0.18 µg/mL (≈ 0.268 µM) in test [8] (setting [16]). Further, the EC50 in [9] (BHK-21, read-out: EC50 (ug/mL) (Neutral Red (NR) Assay)) was under 0.1 µg/mL; in test [9] (BHK-21, read-out: EC50 (ug/mL) (VIS Drug Assay)), under 0.1 µg/mL; in test [10] (setting [17]), 3 µg/mL (≈ 4.47 µM); in [10] (setting [18]), 0.32 µg/mL (≈ 0.477 µM); in test [12] (setting [17]), 0.77 µg/mL (≈ 1.15 µM); in test [12] (setting [18]) it was 0.55 µg/mL (≈ 0.82 µM).

In the case of `COCCN1CCN(c2ccc(Oc3cc(CN4CCC(CNC(C)=O)CC4)cc(-c4cc(Cl)cc(Cl)c4)n3)cn2)CC1` [Example 250, N-((1-((2-(3,5-dichlorophenyl)-6-((6-(4-(2-methoxyethyl)piperazin-1-yl)pyridin-3-yl)oxy)pyridin-4-yl)methyl)piperidin-4-yl)methyl)acetamide], the inhibition at 1 µM with dengue virus (DENV) was found to be 55%; in the test on Marburg virus (MARV) it was 0%; in test [11], 25.9%.

`NCCNc1ccc(Oc2cc(CN3CCOCC3)cc(-c3cc(Cl)cc(Cl)c3)c2)cn1` [Example 99, N1-(5-((3′,5′-dichloro-5-(morpholinomethyl)-[1,1′-biphenyl]-3-yl)oxy)pyridin-2-yl)ethane-1,2-diamine]: the values for the inhibition at 1 µM (with dengue virus (DENV); with Marburg virus (MARV); in [11]) were 15.4%, 0% and 0%, respectively.

For the compound `CC(=O)NCC1CCN(Cc2cc(Oc3ccc(N4CCN(CCS(C)(=O)=O)CC4)nc3)cc(-c3cc(Cl)cc(Cl)c3)c2)CC1` [Example 293, N-((1-((3′,5′-dichloro-5-((6-(4-(2-(methylsulfonyl)ethyl)piperazin-1-yl)pyridin-3-yl)oxy)-[1,1′-biphenyl]-3-yl)methyl)piperidin-4-yl)methyl)acetamide], the inhibition at 1 µM (in the test with dengue virus (DENV); with Marburg virus (MARV); in [11]) was 0% each time.

With `CC(=O)NCC1CCN(Cc2cc(Oc3ccc(N4CCN(CC5(CO)CC5)CC4)nc3)nc(-c3cc(Cl)cc(Cl)c3)c2)CC1` [Example 34, N-((1-((2-(3,5-dichlorophenyl)-6-((6-(4-((1-(hydroxymethyl)cyclopropyl)methyl)piperazin-1-yl)pyridin-3-yl)oxy)pyridin-4-yl)methyl)piperidin-4-yl)methyl)acetamide], the inhibition at 1 µM in the test with dengue virus (DENV) turned out to be 46.8%; in the test with Marburg virus (MARV), 30.3%; in test [11] it was 1.42%.

On to `O=C(O)CC1CCN(Cc2cc(Oc3cnc(N4CCN5CCC4C5)cn3)nc(-c3cc(Cl)cc(Cl)c3)c2)CC1` (stereo not drawn) [Example 348, 2-(1-((2-((5-(1,4-diazabicyclo[3.2.1]octan-4-yl)pyrazin-2-yl)oxy)-6-(3,5-dichlorophenyl)pyridin-4-yl)methyl)piperidin-4-yl)acetic acid], for which the figures for the inhibition at 1 µM (in the test with dengue virus (DENV); in the test on Marburg virus (MARV); in test [11]) were 55.8%, 46.6% and 35.8%, respectively.

Regarding `CNC(=O)NCC1CCN(Cc2cc(Oc3ccc(N4CCN(CCS(C)(=O)=O)CC4)nc3)nc(-c3cc(Cl)cc(Cl)c3)c2)CC1` [Example 290, 1-((1-((2-(3,5-dichlorophenyl)-6-((6-(4-(2-(methylsulfonyl)ethyl)piperazin-1-yl)pyridin-3-yl)oxy)pyridin-4-yl)methyl)piperidin-4-yl)methyl)-3-methylurea], the inhibition at 1 µM in the test on dengue virus (DENV) is 18.9%; in the test with Marburg virus (MARV), 50.6%; in test [11], 0%.

Consider `NC(=O)OCCN1CCN(Cc2cc(Oc3cnc(N4CCN(CCC(=O)O)CC4)nc3)nc(-c3cc(Cl)cc(Cl)c3)c2)CC1` [Example 54, 3-(4-(5-((4-((4-(2-(carbamoyloxy)ethyl)piperazin-1-yl)methyl)-6-(3,5-dichlorophenyl)pyridin-2-yl)oxy)pyrimidin-2-yl)piperazin-1-yl)propanoic acid], for which the inhibition at 1 µM stood at 70.5% in the test on dengue virus (DENV), 62.7% with Marburg virus (MARV) and 36.8% in [11].

(Values after US20230011571A1, “SMALL MOLECULE FURIN INHIBITORS FOR TREATING INFECTIOUS DISEASES” (BP Asset V, Inc., priority 2019, published 2023).)
